Data from patent US7803803B2, “Tetrahydrofuro[3,2-B] pyrrol-3-ones as cathepsin K inhibitors” (Amura Therapeutics Limited, priority 2007, dated 2010).
Like-named read-outs stand apart in the source and are kept apart here.

Key:
cathepsin K = biological target: T1, cathepsin K (Homo sapiens, UniProt P43235); assay: In vitro cathepsin Ki inhibition measurements; assay type: biochemical; design: purchased B. Turk, Josef Stefan Institute, Ljubljana, Slovenia
T1 sequence (P43235 115-329): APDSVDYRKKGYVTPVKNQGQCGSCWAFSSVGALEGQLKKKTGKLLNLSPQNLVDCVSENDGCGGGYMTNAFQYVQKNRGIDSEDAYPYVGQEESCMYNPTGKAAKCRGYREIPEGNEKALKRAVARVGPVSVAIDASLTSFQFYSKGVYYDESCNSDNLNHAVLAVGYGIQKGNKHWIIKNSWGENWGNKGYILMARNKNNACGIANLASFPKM
Description: Stock solutions of substrate or inhibitor were made up to 10 mM in 100% dimethylsulfoxide (DMSO) (Rathburns, Glasgow, U.K.) and diluted as appropriately required. In all cases the DMSO concentration in the assays was maintained at less than 1% (vol./vol.). The equilibrium inhibition constants (Ki^SS) for each compound were measured under steady-state conditions monitoring enzyme activity as a function of inhibitor concentration. The values were calculated on the assumption of pure competitive behaviour (Cornish-Bowden, A. Fundamentals of enzyme kinetics Portland Press; 1995, 93-128). Human recombinant cathepsin K (0.25 nM final; B. Turk, Josef, Stefan Institute, Ljubljana, Slovenia), was routinely assayed in 100 mM sodium acetate; pH 5.5 containing 1 mM EDTA, 10 mM L-cysteine and 1.8 μM Z-Leu-Arg-AMC ([S]═KM).
The apparent inhibition constant (Ki) for each compound was determined on the basis that inhibition was reversible and occurred by a pure-competitive mechanism. The Ki values were calculated, from the dependence of enzyme activity as a function of inhibitor concentration, by direct regression analysis (Prism v 3.02) using Equation 2 (Cornish-Bowden, A., 1995).
In situations where the apparent dissociation constant (Ki^app) approached the enzyme concentrations, the Ki^app values were calculated using a quadratic solution in the form described by Equation 3 (Morrison, J. F. Trends Biochem. Sci., 7, 102-105, 1982; Morrison, J. F. Biochim. Biophys. Acta, 185, 269-286, 1969; Stone, S. R. and Hofsteenge, J. Biochemistry, 25, 4622-4628, 1986).
Curves were fitted by non-linear regression analysis (Prism) using a fixed value for the enzyme concentration. Equation 4 was used to account for the substrate kinetics, where ‘Ki’ is the inhibition constant, ‘[So]’ is the initial substrate concentration and ‘KM^app’ is the apparent macroscopic binding (Michaelis) constant for the substrate (Morrison, 1982).

[1] = Plasma incubations (human plasma stability); assay type: in vitro ADME; conditions: 37° C. Further: tested at 25 µM.
Description: Aliquots were removed at 2 and 60 minutes and quenched with an equal volume of cold acetonitrile. After mixing vigorously, the precipitated protein matter was removed by filtration (Multiscreen Solvinert filter plates, Millipore, Bedford, Mass., USA) and the filtrate analysed by reverse phase HPLC with mass spectrometric detection, using single ion monitoring of the [M+H]^+ species. Metabolic turnover was determined by comparison of peak areas from the ion chromatograms of the parent compound at 2 and 60 minutes and expressed as percent remaining at 1 hour.

LogD determinations = assay type: physicochemical; conditions: Ion-count method; for logD at 1 h: 1-octanol/phosphate buffered saline, pH 7.4, pH 7.4
Description: LogD(PBS) determinations were performed in 96 well microtitre plates using a miniaturised “shake-flask” method. […] The plates were then capped and mixed vigorously for 1 hour on a microtitre plate shaker, after which they were left to stand, allowing the PBS and octanol phases to separate. The PBS layer was analysed by reverse phase HPLC with mass spectrometric detection, using single ion monitoring of the [M+H]^+ species.
Where AUCstd and AUCpbs are the peak areas from the standard and test ion chromatograms respectively.

human osteoclasts = assay: Human osteoclast resorption assay; assay type: cell-based; conditions: Homo sapiens, Osteoclast, 48 h, 1 □ M, read-out: Cell-based % Inh. @ 1 □ M Human
Description: Bone resorption was studied using a model where human osteoclast precursor cells were cultured on bovine bone slices for 9 days and allowed to differentiate into bone-resorbing osteoclasts. The formed mature osteoclasts were then allowed to resorb bone. The assay was performed by Pharmatest Services Ltd, Itäinen Pitkakatu 4C, Turku, Finland. After the culture period, bone collagen degradation products were quantified from the culture medium as an index of bone resorption. Inhibitor compounds were added into the cell cultures after the differentiation period and their effects on the resorbing activity of mature osteoclasts were determined. The studies included a baseline group without added compounds and a positive control group where a potent cathepsin K inhibitor E-64 was added.
Human peripheral blood monocytes were suspended to culture medium and allowed to attach to bovine bone slices. The bone slices were transferred into 96-well tissue culture plates containing culture medium with appropriate amounts of important growth factors favouring osteoclast differentiation, including M-CSF, RANK-ligand and TGF-[…]. The cells were incubated in a CO2 incubator in humidified atmosphere of 95% air and 5% carbon dioxide at 37° C. At day 7 when osteoclast differentiation was complete, the culture medium was replaced with culture medium containing conditions favouring osteoclast activity. The cell culture was continued for an additional 2 days, during which the formed mature osteoclasts were allowed to resorb bone in the presence of vehicle, control inhibitor (E64) or test compounds. At the end of the culture, bone collagen degradation products released into the culture medium were determined using a commercially available ELISA method (CrossLaps® for culture, Nordic Bioscience, Herlev, Denmark) as an index of bone resorption (see Bagger, Y. Z. et al, J. Bone. Miner. Res. 14 (suppl. 1), S370).

[2] = prior art examples of WO-A-02057270, recombinant human cathepsin K, read-out: Ki (nM) vs Human Cathepsin K
[3] = human recombinant cathepsin K, read-out: In vitro Ki (nM) vs Cath K

Row | Ki (cathepsin K; [2]) [nM] | Human Plasma Stability % rem. @ 1 h [1] [%] | LogD pH 7.4 (LogD determinations) | Ki (cathepsin K; [3]) [nM] | Compound | other results
1 | > 50000 | – | – | – | N—((S)-1-((3aS,6S,6aS)-6-methoxy-3-oxodihydro-2H-furo[3,2-b]pyrrol-4(5H,6H,6aH)-yl)-4,4-dimethyl-1-oxopentan-2-yl)-4-(4-methylpiperazin-1-yl)benzamide [Example 2] | –
2 | – | 100 | 1.46 | 5.1 | CCN1CCN(c2ccc(C(=O)N[C@@H](CC(C)(C)C)C(=O)N3C[C@H](OC)[C@H]4OCC(=O)[C@H]43)cc2)CC1 [Example 6, 4-(4-ethylpiperazin-1-yl)-N—((S)-1-((3aS,6S,6aS)-6-methoxy-3-oxodihydro-2H-furo[3,2-b]pyrrol-4(5H,6H,6aH)-yl)-4,4dimethyl-1-oxopentan-2-yl)benzamide] | logD at 1 h (LogD determinations): > 0.8
3 | – | 93 | 0.89 | 9.9 | CCN1CCN(c2ccc(C(=O)N[C@@H](CC(C)C)C(=O)N3C[C@@H](OC)[C@H]4OCC(=O)[C@H]43)cc2)CC1 [Example 7, 4-(4-ethylpiperazin-1-yl)-N—((S)-1-((3aS,6R,6aS)-6-methoxy-3-oxodihydro-2H-furo[3,2-b]pyrrol-4(5H,6H,6aH)-yl)-4-methyl-1-oxopentan-2-yl)benzamide] | inhibition at 1 µM (human osteoclasts): 63 to 88%; logD at 1 h (LogD determinations): > 0.8
4 | > 4000 | – | – | – | N—((S)-1-((3aS,6R,6aS)-6-methoxy-3-oxodihydro-2H-furo[3,2-b]pyrrol-4(5H,6H,6aH)-yl)-4-methyl-1-oxopentan-2-yl)-4-(4-methylpiperazin-1-yl)benzamide [Example 3] | –
5 | > 2500 | – | – | – | N—((S)-1-((3aS,6R,6aS)-6-methoxy-3-oxodihydro-2H-furo[3,2-b]pyrrol-4(5H,6H,6aH)-yl)-4-methyl-1-oxopentan-2-yl)-4-(4-(2-methoxyethyl)piperazin-1-yl)benzamide [Example 28] | –
6 | – | 92 | 1.09 | 9.2 | CCN1CCN(c2ccc(C(=O)N[C@@H](CC(C)(C)C)C(=O)N3C[C@@H](OC)[C@H]4OCC(=O)[C@H]43)cc2)CC1 [Example 8, 4-(4-ethylpiperazin-1-yl)-N—((S)-1-((3aS,6R,6aS)-6-methoxy-3-oxodihydro-2H-furo[3,2-b]pyrrol-4(5H,6H,6aH)-yl)-4,4-dimethyl-1-oxopentan-2-yl)benzamide] | inhibition at 1 µM (human osteoclasts): 63 to 88%; logD at 1 h (LogD determinations): > 0.8
7 | > 100000 | – | – | – | 4-(4-ethylpiperazin-1-yl)-N—((S)-1-((3aS,6S,6aS)-6-methoxy-3-oxodihydro-2H-furo[3,2-b]pyrrol-4(5H,6H,6aH)-yl)-4-methyl-1-oxopentan-2-yl)benzamide [Example 5] | –
8 | > 20000 | – | – | – | N—((S)-1-((3aS,6S,6aS)-6-methoxy-3-oxodihydro-2H-furo[3,2-b]pyrrol-4(5H,6H,6aH)-yl)-4-methyl-1-oxopentan-2-yl)-4-(4-(2-methoxyethyl)piperazin-1-yl)benzamide [Example 27] | –
9 | > 4000 | – | – | – | N—((S)-1-((3aS,6R,6aS)-6-methoxy-3-oxodihydro-2H-furo[3,2-b]pyrrol-4(5H,6H,6aH)-yl)-4,4-dimethyl-1-oxopentan-2-yl)-4-(1-propylpiperidin-4-yl)benzamide [Example 38] | –
10 | – | 90.9 | – | 3.6 | CCN1CCN(c2ccc(C(=O)N[C@H](C(=O)N3C[C@H](OC)[C@H]4OCC(=O)[C@H]43)C3CCCC3)cc2)CC1 | logD at 1 h (LogD determinations): 1.59
11 | > 15000 | – | – | – | 4-(4-ethylpiperazin-1-yl)-N—((S)-1-((3aS,6R,6aS)-6-methoxy-3-oxodihydro-2H-furo[3,2-b]pyrrol-4(5H,6H,6aH)-yl)-4-methyl-1-oxopentan-2-yl)benzamide [Example 7] | –
12 | – | 93 | 1.64 | 3.9 | CCCN1CCN(c2ccc(C(=O)N[C@@H](CC(C)C)C(=O)N3C[C@H](OC)[C@H]4OCC(=O)[C@H]43)cc2)CC1 [Example 13, N—((S)-1-((3aS,6S,6aS)-6-methoxy-3-oxodihydro-2H-furo[3,2-b]pyrrol-4(5H,6H,6aH)-yl)-4-methyl-1-oxopentan-2-yl)-4-(4-propylpiperazin-1-yl)benzamide] | –
13 | > 3000 | – | – | – | N—((S)-1-((3aS,6S,6aR)-6-amino-3-oxodihydro-2H-furo[3,2-b]pyrrol-4(5H,6H,6aH)-yl)-4-methyl-1-oxopentan-2-yl)-4-(4-(2-methoxyethyl)piperazin-1-yl)benzamide [Example 23] | –
14 | – | 87 | 0.42 | 15.1 | CO[C@@H]1CN(C(=O)[C@H](CC(C)C)NC(=O)c2ccc(N3CCN(C)CC3)cc2)[C@@H]2C(=O)CO[C@@H]21 [Example 3, N—((S)-1-((3aS,6R,6aS)-6-methoxy-3-oxodihydro-2H-furo[3,2-b]pyrrol-4(5H,6H,6aH)-yl)-4-methyl-1-oxopentan-2-yl)-4-(4-methylpiperazin-1-yl)benzamide] | –
15 | > 8000 | – | – | – | N—((S)-1-((3aS,6R,6aS)-6-hydroxy-3-oxodihydro-2H-furo[3,2-b]pyrrol-4(5H,6H,6aH)-yl)-4-methyl-1-oxopentan-2-yl)-4-(4-(2-methoxyethyl)piperazin-1-yl)benzamide [Example 26] | –
16 | – | 98 | 1.74 | 8.6 | CCCN1CCN(c2ccc(C(=O)N[C@@H](CC(C)(C)C)C(=O)N3C[C@H](OC)[C@H]4OCC(=O)[C@H]43)cc2)CC1 [Example 14, N—((S)-1-((3aS,6S,6aS)-6-methoxy-3-oxodihydro-2H-furo[3,2-b]pyrrol-4(5H,6H,6aH)-yl)-4,4-dimethyl-1-oxopentan-2-yl)-4-(4-propylpiperazin-1-yl)benzamide] | –
17 | – | 96 | 0.01 | 3.5 | COCCN1CCN(c2ccc(C(=O)N[C@@H](CC(C)C)C(=O)N3C[C@@H](N)[C@H]4OCC(=O)[C@H]43)cc2)CC1 [Example 24, N—((S)-1-((3aS,6R,6aR)-6-amino-3-oxodihydro-2H-furo[3,2-b]pyrrol-4(5H,6H,6aH)-yl)-4-methyl-1-oxopentan-2-yl)-4-(4-(2-methoxyethyl)piperazin-1-yl)benzamide] | logD at 1 h (LogD determinations): 0.01 to 0.76
18 | > 100000 | – | – | – | N—((S)-1-((3aS,6R,6aS)-6-methoxy-3-oxodihydro-2H-furo[3,2-b]pyrrol-4(5H,6H,6aH)-yl)-4,4-dimethyl-1-oxopentan-2-yl)-4-(4-methylpiperazin-1-yl)benzamide [Example 4] | –
19 | > 2000 | – | – | – | N—((S)-1-((3aS,6R,6aR)-6-amino-3-oxodihydro-2H-furo[3,2-b]pyrrol-4(5H,6H,6aH)-yl)-4-methyl-1-oxopentan-2-yl)-4-(4-(2-methoxyethyl)piperazin-1-yl)benzamide [Example 24] | –

Row | Compound | Ki (cathepsin K; [2]) [nM] | Human Plasma Stability % rem. @ 1 h [1] [%] | LogD pH 7.4 (LogD determinations) | Ki (cathepsin K; [3]) [nM] | other results
20 | 4-(4-ethylpiperazin-1-yl)-N—((S)-1-((3aS,6S,6aS)-6-methoxy-3-oxodihydro-2H-furo[3,2-b]pyrrol-4(5H,6H,6aH)-yl)-4,4dimethyl-1-oxopentan-2-yl)benzamide [Example 6] | > 20000 | – | – | – | –
21 | N—((S)-1-((3aS,6S,6aS)-6-methoxy-3-oxodihydro-2H-furo[3,2-b]pyrrol-4(5H,6H,6aH)-yl)-4-methyl-1-oxopentan-2-yl)-4-(4-methylpiperazin-1-yl)benzamide [Example 1] | > 20000 | – | – | – | –
